Laboratory results taken from ChEMBL document CHEMBL5465560, “Selectivity Literature for EUbOPEN Chemogenomic Library” (2024).

Key:
[1] = target: Mitogen-activated protein kinase 3 (Homo sapiens, UniProt P27361); conditions: at 10 µM
[2] = target: Insulin-like growth factor 1 receptor (Homo sapiens, UniProt P08069); assay: Selectivity interaction (KinomeScan (DiscoverX)) EUB0000229b IGF1R; conditions: at 10 µM
[3] = target: Serine/threonine-protein kinase PAK 2 (Homo sapiens) (UniProt Q13177); assay: Selectivity interaction (KinomeScan (DiscoverX)) EUB0000092b PAK2; conditions: at 10 µM
[4] = target: G protein-coupled receptor kinase 4 (Homo sapiens) (UniProt P32298); assay: Selectivity interaction (ProQinase) EUB0000171b GRK4
[5] = target: Eukaryotic translation initiation factor 2-alpha kinase 1 (Homo sapiens) (UniProt Q9BQI3); assay: Selectivity interaction (ProQinase) EUB0000171b EIF2AK1
[6] = target: AP2-associated protein kinase 1 (Homo sapiens, UniProt Q2M2I8); assay: Selectivity interaction (KinomeScan (DiscoverX)) EUB0000666a AAK1; conditions: at 10 µM
[7] = target: Tyrosine-protein kinase Blk (Homo sapiens) (UniProt P51451); assay: Selectivity interaction (Kinase panel (Z-LYTE Assay)) EUB0001632a BLK; conditions: at 10 µM
[8] = target: T1, G protein-coupled receptor kinase 3 (Homo sapiens) (UniProt P35626); assay: Selectivity interaction (Kinase panel (Invitrogen)) EUB0000639a ADRBK2; conditions: at 200 nM
T1 sequence (whole entry): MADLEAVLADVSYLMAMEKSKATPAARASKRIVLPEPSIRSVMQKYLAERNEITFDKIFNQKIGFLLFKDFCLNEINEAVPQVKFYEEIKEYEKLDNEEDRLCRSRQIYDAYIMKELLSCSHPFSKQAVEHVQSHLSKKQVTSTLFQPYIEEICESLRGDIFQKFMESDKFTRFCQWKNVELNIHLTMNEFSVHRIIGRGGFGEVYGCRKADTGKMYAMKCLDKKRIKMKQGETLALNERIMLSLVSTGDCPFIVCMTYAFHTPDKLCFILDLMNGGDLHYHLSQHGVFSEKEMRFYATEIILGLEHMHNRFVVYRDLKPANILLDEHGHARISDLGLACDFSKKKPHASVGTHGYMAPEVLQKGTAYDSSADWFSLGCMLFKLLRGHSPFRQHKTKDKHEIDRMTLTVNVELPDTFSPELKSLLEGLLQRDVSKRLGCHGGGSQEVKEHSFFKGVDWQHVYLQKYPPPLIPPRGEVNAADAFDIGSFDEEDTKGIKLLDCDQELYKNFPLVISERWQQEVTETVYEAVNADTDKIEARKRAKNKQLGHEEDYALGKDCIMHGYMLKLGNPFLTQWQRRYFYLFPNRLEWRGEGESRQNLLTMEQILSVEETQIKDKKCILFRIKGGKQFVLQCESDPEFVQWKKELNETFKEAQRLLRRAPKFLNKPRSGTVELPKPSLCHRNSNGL

[9] = target: Serine/threonine-protein kinase PAK 4 (Homo sapiens, UniProt O96013); assay: Selectivity interaction (KinomeScan (DiscoverX)) EUB0000695a PAK4; conditions: at 100 nM
[10] = target: Phosphatidylinositol 4,5-bisphosphate 3-kinase catalytic subunit beta isoform (Homo sapiens) (UniProt P42338); assay: Selectivity interaction (ActivX KiNativ screen (ex vivo kinase selectivity in human PBMCs)) EUB0001619a PIK3CB; type: cell-based; conditions: PBMC, at 1 µM
[11] = target: Glycogen synthase kinase-3 beta (Homo sapiens, UniProt P49841); assay: Selectivity interaction (KinomeScan (DiscoverX)) EUB0001619a GSK3B; conditions: at 1 µM
[12] = target: T2, Mitogen-activated protein kinase kinase kinase 6 (Homo sapiens) (UniProt O95382); assay: Selectivity interaction (KinomeScan (DiscoverX)) EUB0001619a MAP3K6; conditions: at 1 µM
T2 sequence (whole entry): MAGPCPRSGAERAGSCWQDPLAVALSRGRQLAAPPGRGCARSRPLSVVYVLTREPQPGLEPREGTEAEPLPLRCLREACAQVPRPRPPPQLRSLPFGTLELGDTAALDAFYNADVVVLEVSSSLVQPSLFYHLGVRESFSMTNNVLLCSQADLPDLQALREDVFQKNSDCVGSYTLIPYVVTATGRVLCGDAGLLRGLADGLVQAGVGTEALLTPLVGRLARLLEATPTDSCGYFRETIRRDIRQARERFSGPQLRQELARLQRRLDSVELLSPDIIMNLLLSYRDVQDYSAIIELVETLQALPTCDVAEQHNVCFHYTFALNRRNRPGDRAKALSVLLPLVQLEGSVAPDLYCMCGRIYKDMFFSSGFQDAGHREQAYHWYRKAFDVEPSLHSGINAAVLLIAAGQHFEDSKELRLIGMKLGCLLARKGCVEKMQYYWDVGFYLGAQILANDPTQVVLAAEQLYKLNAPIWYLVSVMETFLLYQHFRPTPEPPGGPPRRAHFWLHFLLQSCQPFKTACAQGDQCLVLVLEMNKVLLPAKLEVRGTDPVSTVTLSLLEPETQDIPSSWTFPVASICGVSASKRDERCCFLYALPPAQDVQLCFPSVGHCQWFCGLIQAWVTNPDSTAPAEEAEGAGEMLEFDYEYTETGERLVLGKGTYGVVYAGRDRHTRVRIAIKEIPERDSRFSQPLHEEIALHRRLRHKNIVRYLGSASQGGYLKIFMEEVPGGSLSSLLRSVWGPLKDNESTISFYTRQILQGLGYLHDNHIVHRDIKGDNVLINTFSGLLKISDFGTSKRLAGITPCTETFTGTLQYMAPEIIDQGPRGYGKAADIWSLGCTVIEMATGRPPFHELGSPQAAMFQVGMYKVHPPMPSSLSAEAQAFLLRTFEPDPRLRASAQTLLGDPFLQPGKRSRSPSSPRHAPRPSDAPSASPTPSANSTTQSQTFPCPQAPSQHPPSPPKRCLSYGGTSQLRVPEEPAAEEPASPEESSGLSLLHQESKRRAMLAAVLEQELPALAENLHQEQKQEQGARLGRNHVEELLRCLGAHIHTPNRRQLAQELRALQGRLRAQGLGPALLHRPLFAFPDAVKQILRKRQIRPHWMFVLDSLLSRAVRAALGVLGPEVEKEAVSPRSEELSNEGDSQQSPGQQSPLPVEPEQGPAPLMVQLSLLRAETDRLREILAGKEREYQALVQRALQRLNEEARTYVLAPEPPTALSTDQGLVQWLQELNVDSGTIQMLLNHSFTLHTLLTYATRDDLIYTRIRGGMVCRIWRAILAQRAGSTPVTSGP

G protein-coupled receptor kinase 4 (Homo sapiens), sequence (P32298 whole entry, looked up): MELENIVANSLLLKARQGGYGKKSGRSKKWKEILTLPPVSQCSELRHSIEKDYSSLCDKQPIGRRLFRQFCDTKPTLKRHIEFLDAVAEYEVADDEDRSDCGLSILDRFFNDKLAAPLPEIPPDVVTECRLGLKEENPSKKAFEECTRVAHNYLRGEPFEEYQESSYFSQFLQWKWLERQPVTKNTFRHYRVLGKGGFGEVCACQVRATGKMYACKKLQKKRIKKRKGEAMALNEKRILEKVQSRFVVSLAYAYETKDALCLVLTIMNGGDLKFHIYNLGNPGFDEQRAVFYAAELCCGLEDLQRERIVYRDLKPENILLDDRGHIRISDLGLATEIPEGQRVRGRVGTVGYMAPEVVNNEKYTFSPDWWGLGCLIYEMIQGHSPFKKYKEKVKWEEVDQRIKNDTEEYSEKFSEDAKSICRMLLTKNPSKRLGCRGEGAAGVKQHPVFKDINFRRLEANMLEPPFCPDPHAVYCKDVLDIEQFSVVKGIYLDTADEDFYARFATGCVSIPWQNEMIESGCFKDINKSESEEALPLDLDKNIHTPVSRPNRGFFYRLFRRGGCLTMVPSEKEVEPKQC
Eukaryotic translation initiation factor 2-alpha kinase 1 (Homo sapiens), sequence (Q9BQI3 whole entry): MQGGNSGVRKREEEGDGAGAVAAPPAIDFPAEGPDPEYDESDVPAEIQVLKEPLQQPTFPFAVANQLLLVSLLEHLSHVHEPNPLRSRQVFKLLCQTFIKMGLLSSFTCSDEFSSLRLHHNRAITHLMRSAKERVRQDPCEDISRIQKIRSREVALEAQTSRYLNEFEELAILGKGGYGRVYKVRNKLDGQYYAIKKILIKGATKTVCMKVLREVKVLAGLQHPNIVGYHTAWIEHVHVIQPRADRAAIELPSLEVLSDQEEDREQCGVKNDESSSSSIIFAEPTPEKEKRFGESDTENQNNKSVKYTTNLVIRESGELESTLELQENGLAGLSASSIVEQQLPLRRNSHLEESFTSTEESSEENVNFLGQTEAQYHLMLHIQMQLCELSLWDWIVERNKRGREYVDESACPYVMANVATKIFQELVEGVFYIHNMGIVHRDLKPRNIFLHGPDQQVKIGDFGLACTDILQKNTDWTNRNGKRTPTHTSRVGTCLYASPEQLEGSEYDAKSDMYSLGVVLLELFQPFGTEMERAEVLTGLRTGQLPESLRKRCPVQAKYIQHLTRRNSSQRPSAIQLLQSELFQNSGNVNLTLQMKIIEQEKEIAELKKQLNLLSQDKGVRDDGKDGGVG
Insulin-like growth factor 1 receptor, sequence (P08069 31-736 limits assumed): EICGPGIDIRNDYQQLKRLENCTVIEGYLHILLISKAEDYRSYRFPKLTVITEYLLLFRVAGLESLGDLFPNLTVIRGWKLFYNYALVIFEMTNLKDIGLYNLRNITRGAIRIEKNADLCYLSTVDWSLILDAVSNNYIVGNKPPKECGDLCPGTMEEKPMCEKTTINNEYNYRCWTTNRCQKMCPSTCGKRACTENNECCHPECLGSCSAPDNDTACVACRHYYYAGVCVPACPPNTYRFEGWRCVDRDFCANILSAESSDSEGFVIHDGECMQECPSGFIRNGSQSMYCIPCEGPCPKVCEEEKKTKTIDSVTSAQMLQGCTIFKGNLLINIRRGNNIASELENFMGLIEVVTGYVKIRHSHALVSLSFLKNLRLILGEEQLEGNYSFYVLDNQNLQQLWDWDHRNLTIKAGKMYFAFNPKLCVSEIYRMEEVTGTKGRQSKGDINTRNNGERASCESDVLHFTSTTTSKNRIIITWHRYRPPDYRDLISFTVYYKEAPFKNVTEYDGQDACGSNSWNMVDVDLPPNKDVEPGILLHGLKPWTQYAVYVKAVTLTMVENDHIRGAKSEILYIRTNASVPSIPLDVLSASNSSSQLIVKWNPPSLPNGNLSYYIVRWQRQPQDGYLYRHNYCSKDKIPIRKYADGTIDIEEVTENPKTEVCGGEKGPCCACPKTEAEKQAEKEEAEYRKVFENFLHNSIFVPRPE
Insulin-like growth factor 1 receptor, sequence (P08069 741-1367 limits assumed): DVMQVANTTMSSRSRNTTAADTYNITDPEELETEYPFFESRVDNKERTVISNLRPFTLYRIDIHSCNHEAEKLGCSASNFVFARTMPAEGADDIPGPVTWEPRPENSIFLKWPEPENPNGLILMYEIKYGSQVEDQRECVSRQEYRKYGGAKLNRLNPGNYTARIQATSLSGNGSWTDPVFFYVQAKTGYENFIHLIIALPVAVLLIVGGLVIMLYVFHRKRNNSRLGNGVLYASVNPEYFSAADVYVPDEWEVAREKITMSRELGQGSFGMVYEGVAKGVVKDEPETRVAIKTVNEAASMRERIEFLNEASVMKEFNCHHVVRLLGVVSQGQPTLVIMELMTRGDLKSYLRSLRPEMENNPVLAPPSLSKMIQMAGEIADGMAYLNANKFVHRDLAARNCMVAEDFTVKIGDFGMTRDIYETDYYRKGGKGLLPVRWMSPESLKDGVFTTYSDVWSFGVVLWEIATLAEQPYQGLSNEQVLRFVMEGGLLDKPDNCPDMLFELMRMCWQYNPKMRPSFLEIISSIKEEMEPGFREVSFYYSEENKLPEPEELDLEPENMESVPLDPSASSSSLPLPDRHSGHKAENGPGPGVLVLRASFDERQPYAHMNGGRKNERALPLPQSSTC
Phosphatidylinositol 4,5-bisphosphate 3-kinase catalytic subunit beta isoform (Homo sapiens), sequence (P42338 whole entry, looked up, canonical isoform): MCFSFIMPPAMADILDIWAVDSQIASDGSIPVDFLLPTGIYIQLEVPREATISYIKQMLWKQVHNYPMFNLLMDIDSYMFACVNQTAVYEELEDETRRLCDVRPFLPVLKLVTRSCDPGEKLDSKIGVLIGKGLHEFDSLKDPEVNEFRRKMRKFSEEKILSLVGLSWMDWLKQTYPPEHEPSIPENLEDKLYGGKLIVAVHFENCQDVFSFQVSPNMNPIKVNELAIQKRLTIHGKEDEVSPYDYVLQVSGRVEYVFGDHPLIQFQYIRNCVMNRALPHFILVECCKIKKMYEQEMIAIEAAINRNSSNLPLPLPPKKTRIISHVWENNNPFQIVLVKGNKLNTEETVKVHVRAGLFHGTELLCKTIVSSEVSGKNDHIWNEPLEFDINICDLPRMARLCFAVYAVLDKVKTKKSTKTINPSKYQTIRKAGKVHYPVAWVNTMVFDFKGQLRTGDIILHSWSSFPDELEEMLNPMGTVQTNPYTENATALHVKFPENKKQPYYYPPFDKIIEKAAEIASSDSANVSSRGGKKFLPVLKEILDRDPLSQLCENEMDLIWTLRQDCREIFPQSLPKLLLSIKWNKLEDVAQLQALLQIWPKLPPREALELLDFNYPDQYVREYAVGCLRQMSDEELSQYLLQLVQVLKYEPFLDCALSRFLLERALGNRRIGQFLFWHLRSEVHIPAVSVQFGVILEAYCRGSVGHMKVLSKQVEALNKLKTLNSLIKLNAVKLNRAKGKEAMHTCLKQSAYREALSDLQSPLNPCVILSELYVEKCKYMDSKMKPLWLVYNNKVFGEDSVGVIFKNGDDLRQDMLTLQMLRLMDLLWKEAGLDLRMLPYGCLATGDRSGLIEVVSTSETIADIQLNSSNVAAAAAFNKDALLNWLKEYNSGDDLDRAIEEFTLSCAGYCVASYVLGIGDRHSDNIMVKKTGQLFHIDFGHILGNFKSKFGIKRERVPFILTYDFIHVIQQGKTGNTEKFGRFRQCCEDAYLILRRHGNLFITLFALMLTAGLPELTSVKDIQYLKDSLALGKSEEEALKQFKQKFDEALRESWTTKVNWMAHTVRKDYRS
AP2-associated protein kinase 1, sequence (Q2M2I8 whole entry, looked up): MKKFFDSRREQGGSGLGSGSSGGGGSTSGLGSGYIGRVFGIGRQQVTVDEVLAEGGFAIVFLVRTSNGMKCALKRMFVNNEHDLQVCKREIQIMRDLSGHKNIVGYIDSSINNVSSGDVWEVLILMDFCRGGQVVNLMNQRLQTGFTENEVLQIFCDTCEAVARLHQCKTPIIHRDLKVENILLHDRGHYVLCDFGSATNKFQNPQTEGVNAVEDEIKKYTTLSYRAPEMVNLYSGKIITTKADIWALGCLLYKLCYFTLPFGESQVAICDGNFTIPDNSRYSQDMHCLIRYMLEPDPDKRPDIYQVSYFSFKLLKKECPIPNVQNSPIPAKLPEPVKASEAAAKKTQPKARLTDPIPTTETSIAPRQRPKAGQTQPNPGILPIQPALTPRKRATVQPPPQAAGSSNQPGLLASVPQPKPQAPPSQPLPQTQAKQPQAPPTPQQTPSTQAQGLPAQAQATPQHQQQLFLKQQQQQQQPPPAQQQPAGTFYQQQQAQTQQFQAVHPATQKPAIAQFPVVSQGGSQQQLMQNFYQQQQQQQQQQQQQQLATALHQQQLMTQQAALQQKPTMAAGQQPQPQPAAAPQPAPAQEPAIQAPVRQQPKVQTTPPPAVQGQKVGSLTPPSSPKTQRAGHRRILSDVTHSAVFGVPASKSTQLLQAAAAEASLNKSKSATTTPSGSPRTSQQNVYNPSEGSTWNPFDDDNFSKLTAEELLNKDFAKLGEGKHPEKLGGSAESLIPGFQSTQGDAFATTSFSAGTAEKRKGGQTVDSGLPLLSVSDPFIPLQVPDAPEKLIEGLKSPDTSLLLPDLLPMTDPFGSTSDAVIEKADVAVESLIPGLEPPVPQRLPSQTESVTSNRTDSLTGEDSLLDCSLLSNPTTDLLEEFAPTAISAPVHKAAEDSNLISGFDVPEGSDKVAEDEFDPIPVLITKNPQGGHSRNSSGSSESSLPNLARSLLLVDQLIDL
Glycogen synthase kinase-3 beta, sequence (P49841 whole entry, looked up): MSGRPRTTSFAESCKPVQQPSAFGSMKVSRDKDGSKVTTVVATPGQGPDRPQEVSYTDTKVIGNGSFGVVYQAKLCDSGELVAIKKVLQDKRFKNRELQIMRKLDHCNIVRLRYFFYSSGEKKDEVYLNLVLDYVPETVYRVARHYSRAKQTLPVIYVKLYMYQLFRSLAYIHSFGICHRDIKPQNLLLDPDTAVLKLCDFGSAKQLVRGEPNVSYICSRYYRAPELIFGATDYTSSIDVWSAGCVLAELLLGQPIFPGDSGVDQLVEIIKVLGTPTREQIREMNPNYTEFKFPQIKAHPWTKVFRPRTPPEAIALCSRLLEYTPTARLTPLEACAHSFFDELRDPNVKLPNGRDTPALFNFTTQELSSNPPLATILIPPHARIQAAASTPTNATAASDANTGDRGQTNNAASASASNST

CCN(CC)CCCCNc1ncc2cc(-c3cc(OC)cc(OC)c3)c(NC(=O)NC(C)(C)C)nc2n1
% of control [1]: 100%

COc1cc(N(C)c2ccnc3ccc(C(F)(F)F)cc23)cc(OC)c1OC
% binding [2]: 93%

CCC(=O)N1CCN(c2ccc(-n3c(=O)ccc4cnc5ccc(-c6cnc7ccccc7c6)cc5c43)cc2C(F)(F)F)CC1
% of control [3]: 100%

C=CC(=O)Nc1cccc(C(=O)Nc2ccc(Nc3cc(-c4[nH]c(SC)nc4C)ccn3)cc2)c1
% of control ([4]; at 1 µM): 101%
% of control ([4]; at 5 µM): 97%
% of control ([5]; at 1 µM): 85%
% of control ([5]; at 5 µM): 66%

O=C(NOC[C@H](O)CO)c1ccc(F)c(F)c1Nc1ccc(I)cc1F
% of control [6]: 100%

Cn1cc(-n2cnc3c(NCc4nc5cc(Cl)c(Cl)cc5[nH]4)nc(N4CCOCC4)nc32)cn1
% of control [7]: 6.49%

CC[C@@H]1[C@H](F)C(=O)N[C@@H]1COc1nccc2cc(C(N)=O)c(OC)cc12 [ZIMLOVISERTIB]
% of inhibition [8]: 2.95%

Cc1cc(F)c(C(=O)Nc2cccc(-c3nncn3C(C)C)n2)cc1-n1cnc(C2CC2)c1
% of control [9]: 99%

N#Cc1cccc(-c2c[nH]c3ncnc(N4CCOCC4)c23)c1
% of inhibition [10]: -3%
% of control [11]: 94%
% of control [12]: 57%
